# Laboratory results: US10597388B2, “Pyridazinone herbicides” (FMC CORPORATION, priority 2014, dated 2020)
# Experiments:
# Assay in all cases: Test E greenhouse herbicide test, pre- and postemergence
# Format in all cases: in vivo
# [1] = tested on: sandbur (southem sandbur, Cenchrus echinatus)
# Procedure, shortened: (§1)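 Herbicidal effect was judged by eye relative to untreated plants 14 to 21 d after spraying, using 0 for no effect and 100 for complete control. Preemergence sprays went onto freshly seeded silt loam; postemergence sprays onto 2–18 cm seedlings.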
# [2] = tested on: foxtail, giant (giant foxtail, Setaria faberii); conditions: Preemergence
# Procedure, shortened: as §1
# [3] = tested on: foxtail, green (green foxtail, Setaria viridis); conditions: Preemergence
# Procedure, shortened: as §1
# [4] = tested on: nightshade (eastern black nightshade, Solanum ptycanthum); conditions: Preemergence
# Procedure, shortened: as §1
# [5] = tested on: ragweed (common ragweed, Ambrosia elatior)
# Procedure, shortened: as §1
# [6] = tested on: Italian ryegrass (Lolium multiflorum)
# Procedure, shortened: as §1
# [7] = tested on: panicum, fall (fall panicum, Panicum dichotomiflorum)
# Procedure, shortened: as §1
# [8] = tested on: arrowleaf sida (Sida rhombifolia)
# Procedure, shortened: as §1
# [9] = tested on: velvetleaf (Abutilon theophrasti); conditions: Preemergence
# Procedure, shortened: as §1
# [10] = tested on: beggarticks (hairy beggarticks, Bidens pilosa)
# Procedure, shortened: as §1
# [11] = tested on: momingglory (Ipomoea coccinea); conditions: Preemergence
# Procedure, shortened: as §1
# [12] = tested on: crabgrass, large (large crabgrass, Digitaria sanguinalis); conditions: Preemergence
# Procedure, shortened: as §1
# corn (Zea mays) = tested on: corn (Zea mays)
# Procedure, shortened: as §1
# [13] = tested on: horseweed (Conyza canadensis)
# Procedure, shortened: as §1
# [14] = tested on: field bindweed (Convolvulus arvensis)
# Procedure, shortened: as §1
# [15] = tested on: lambsquarters (Chenopodium album); conditions: Preemergence
# Procedure, shortened: as §1
# [16] = 62 g ai/ha, Preemergence, scale 0 to 100 (0 no effect, 100 complete control)
# [17] = 125 g ai/ha, Preemergence, scale 0 to 100 (0 no effect, 100 complete control)
# [18] = Preemergence, 31 g ai/ha, scale 0 to 100, 0 no effect, 100 complete control
# [19] = Preemergence, 250 g ai/ha, visual, scale 0 no effect to 100 complete control
# [20] = 62 g ai/ha, scale 0 to 100 (0 no effect, 100 complete control)
# [21] = 31 g ai/ha, scale 0 to 100, 0 no effect, 100 complete control
# [22] = 125 g ai/ha, visual, scale 0 no effect to 100 complete control
# [23] = 250 g ai/ha, visual, scale 0 no effect to 100 complete control
# [24] = 125 g ai/ha, scale 0 to 100 (0 no effect, 100 complete control)
# [25] = Preemergence, 125 g ai/ha, visual, scale 0 no effect to 100 complete control
# [26] = 62 g ai/ha, Postemergence, scale 0 to 100 (0 no effect, 100 complete control)
# [27] = 125 g ai/ha, Postemergence, scale 0 to 100 (0 no effect, 100 complete control)
# [28] = 250 g ai/ha, Postemergence, scale 0 to 100 (0 no effect, 100 complete control)
# [29] = Postemergence, 31 g ai/ha, visual, scale 0 no effect to 100 complete control
smiles,measurement,setting,value
Cc1ccc2ccccc2c1-c1c(O)c(I)nn(C)c1=O [Compound 29],"Plant response rating, Sandbur",[1]; [16],75
same,"Plant response rating, Sandbur",[1]; [17],90
same,"Plant response rating, Sandbur",[1]; [18],75
same,"Plant response rating, Sandbur",[1]; [19],90
same,"Plant response rating, Foxtail, Giant",[2]; [20],80
same,"Plant response rating, Foxtail, Giant",[2]; [21],70
same,"Plant response rating, Foxtail, Giant",[2]; [22],95
same,"Plant response rating, Foxtail, Giant",[2]; [23],98
same,"Plant response rating, Foxtail, Green",[3]; [20],75
same,"Plant response rating, Foxtail, Green",[3]; [21],65
same,"Plant response rating, Foxtail, Green",[3]; [22],90
same,"Plant response rating, Foxtail, Green",[3]; [23],100
same,"Plant response rating, Nightshade",[4]; [20],70
same,"Plant response rating, Nightshade",[4]; [24],85
same,"Plant response rating, Nightshade",[4]; [21],5
same,"Plant response rating, Nightshade",[4]; [23],90
same,"Plant response rating, Ragweed",[5]; [16],85
same,"Plant response rating, Ragweed",[5]; [17],70
same,"Plant response rating, Ragweed",[5]; [18],90
same,"Plant response rating, Ragweed",[5]; [19],98
same,"Plant response rating, Ryegrass, Italian",[6]; [16],75
same,"Plant response rating, Ryegrass, Italian",[6]; [17],95
same,"Plant response rating, Ryegrass, Italian",[6]; [18],65
same,"Plant response rating, Ryegrass, Italian",[6]; [19],100
same,"Plant response rating, Panicum, Fall",[7]; [16],95
same,"Plant response rating, Panicum, Fall",[7]; [17],98
same,"Plant response rating, Panicum, Fall",[7]; [18],85
same,"Plant response rating, Panicum, Fall",[7]; [19],98
same,"Plant response rating, Arrowleaf Sida",[8]; [16],90
same,"Plant response rating, Arrowleaf Sida",[8]; [18],70
same,"Plant response rating, Arrowleaf Sida",[8]; [25],98
same,"Plant response rating, Arrowleaf Sida",[8]; [19],98
same,"Plant response rating, Velvetleaf",[9]; [20],95
same,"Plant response rating, Velvetleaf",[9]; [24],100
same,"Plant response rating, Velvetleaf",[9]; [21],70
same,"Plant response rating, Velvetleaf",[9]; [23],100
same,"Plant response rating, Beggarticks",[10]; [16],98
same,"Plant response rating, Beggarticks",[10]; [18],80
same,"Plant response rating, Beggarticks",[10]; [25],100
same,"Plant response rating, Beggarticks",[10]; [19],100
same,"Plant response rating, Morningglory",[11]; [20],65
same,"Plant response rating, Morningglory",[11]; [24],80
same,"Plant response rating, Morningglory",[11]; [21],35
same,"Plant response rating, Morningglory",[11]; [23],95
same,"Plant response rating, Crabgrass, Large",[12]; [20],25
same,"Plant response rating, Crabgrass, Large",[12]; [21],0
same,"Plant response rating, Crabgrass, Large",[12]; [22],40
same,"Plant response rating, Crabgrass, Large",[12]; [23],65
same,"Plant response rating, Corn",corn (Zea mays); [16],0
same,"Plant response rating, Corn",corn (Zea mays); [18],0
same,"Plant response rating, Corn",corn (Zea mays); [25],0
same,"Plant response rating, Corn",corn (Zea mays); [19],0
same,"Plant response rating, Horseweed",[13]; [16],100
same,"Plant response rating, Horseweed",[13]; [18],100
same,"Plant response rating, Horseweed",[13]; [25],100
same,"Plant response rating, Horseweed",[13]; [19],100
same,"Plant response rating, Field Bindweed",[14]; [16],90
same,"Plant response rating, Field Bindweed",[14]; [18],80
same,"Plant response rating, Field Bindweed",[14]; [25],95
same,"Plant response rating, Field Bindweed",[14]; [19],98
same,"Plant response rating, Lambsquarters",[15]; [20],100
same,"Plant response rating, Lambsquarters",[15]; [21],100
same,"Plant response rating, Lambsquarters",[15]; [22],100
same,"Plant response rating, Lambsquarters",[15]; [23],98
Cc1cc2ccccc2c(-c2c(O)c(C)nn(C)c2=O)c1C [Compound 34],"Plant response rating, Sandbur",[1]; [26],80
same,"Plant response rating, Sandbur",[1]; [16],40
same,"Plant response rating, Sandbur",[1]; [27],85
same,"Plant response rating, Sandbur",[1]; [17],65
same,"Plant response rating, Sandbur",[1]; [28],90
same,"Plant response rating, Sandbur",[1]; [29],70
same,"Plant response rating, Sandbur",[1]; [18],0
same,"Plant response rating, Sandbur",[1]; [19],70
same,"Plant response rating, Foxtail, Giant",[2]; [20],40
same,"Plant response rating, Foxtail, Giant",[2]; [21],5
same,"Plant response rating, Foxtail, Giant",[2]; [22],40
same,"Plant response rating, Foxtail, Giant",[2]; [23],65
same,"Plant response rating, Foxtail, Green",[3]; [20],0
same,"Plant response rating, Foxtail, Green",[3]; [21],0
same,"Plant response rating, Foxtail, Green",[3]; [22],25
same,"Plant response rating, Foxtail, Green",[3]; [23],65
same,"Plant response rating, Nightshade",[4]; [20],25
same,"Plant response rating, Nightshade",[4]; [24],98
same,"Plant response rating, Nightshade",[4]; [21],0
same,"Plant response rating, Nightshade",[4]; [23],95
same,"Plant response rating, Ragweed",[5]; [26],85
same,"Plant response rating, Ragweed",[5]; [16],75
same,"Plant response rating, Ragweed",[5]; [27],90
same,"Plant response rating, Ragweed",[5]; [17],100
same,"Plant response rating, Ragweed",[5]; [28],100
same,"Plant response rating, Ragweed",[5]; [29],90
same,"Plant response rating, Ragweed",[5]; [18],70
same,"Plant response rating, Ragweed",[5]; [19],100
same,"Plant response rating, Ryegrass, Italian",[6]; [26],80
same,"Plant response rating, Ryegrass, Italian",[6]; [16],100
same,"Plant response rating, Ryegrass, Italian",[6]; [27],85
same,"Plant response rating, Ryegrass, Italian",[6]; [17],100
same,"Plant response rating, Ryegrass, Italian",[6]; [28],90
same,"Plant response rating, Ryegrass, Italian",[6]; [29],65
same,"Plant response rating, Ryegrass, Italian",[6]; [18],90
same,"Plant response rating, Ryegrass, Italian",[6]; [19],100
same,"Plant response rating, Panicum, Fall",[7]; [26],65
same,"Plant response rating, Panicum, Fall",[7]; [16],80
same,"Plant response rating, Panicum, Fall",[7]; [27],70
same,"Plant response rating, Panicum, Fall",[7]; [17],90
same,"Plant response rating, Panicum, Fall",[7]; [28],60
same,"Plant response rating, Panicum, Fall",[7]; [29],50
same,"Plant response rating, Panicum, Fall",[7]; [18],70
same,"Plant response rating, Panicum, Fall",[7]; [19],95
same,"Plant response rating, Arrowleaf Sida",[8]; [26],60
same,"Plant response rating, Arrowleaf Sida",[8]; [16],20
same,"Plant response rating, Arrowleaf Sida",[8]; [27],70
same,"Plant response rating, Arrowleaf Sida",[8]; [28],75
same,"Plant response rating, Arrowleaf Sida",[8]; [29],65
same,"Plant response rating, Arrowleaf Sida",[8]; [18],0
same,"Plant response rating, Arrowleaf Sida",[8]; [25],65
same,"Plant response rating, Arrowleaf Sida",[8]; [19],80
same,"Plant response rating, Velvetleaf",[9]; [20],90
same,"Plant response rating, Velvetleaf",[9]; [24],100
same,"Plant response rating, Velvetleaf",[9]; [21],20
same,"Plant response rating, Velvetleaf",[9]; [23],100
same,"Plant response rating, Beggarticks",[10]; [26],100
same,"Plant response rating, Beggarticks",[10]; [16],100
same,"Plant response rating, Beggarticks",[10]; [27],98
same,"Plant response rating, Beggarticks",[10]; [28],100
same,"Plant response rating, Beggarticks",[10]; [29],90
same,"Plant response rating, Beggarticks",[10]; [18],90
same,"Plant response rating, Beggarticks",[10]; [25],100
same,"Plant response rating, Beggarticks",[10]; [19],100
same,"Plant response rating, Morningglory",[11]; [20],25
same,"Plant response rating, Morningglory",[11]; [24],35
same,"Plant response rating, Morningglory",[11]; [21],0
same,"Plant response rating, Morningglory",[11]; [23],90
same,"Plant response rating, Crabgrass, Large",[12]; [20],0
same,"Plant response rating, Crabgrass, Large",[12]; [21],0
same,"Plant response rating, Crabgrass, Large",[12]; [22],50
same,"Plant response rating, Crabgrass, Large",[12]; [23],20
same,"Plant response rating, Corn",corn (Zea mays); [26],0
same,"Plant response rating, Corn",corn (Zea mays); [16],0
same,"Plant response rating, Corn",corn (Zea mays); [27],0
same,"Plant response rating, Corn",corn (Zea mays); [28],5
same,"Plant response rating, Corn",corn (Zea mays); [29],0
same,"Plant response rating, Corn",corn (Zea mays); [18],0
same,"Plant response rating, Corn",corn (Zea mays); [25],0
same,"Plant response rating, Corn",corn (Zea mays); [19],0
same,"Plant response rating, Horseweed",[13]; [26],75
same,"Plant response rating, Horseweed",[13]; [27],80
same,"Plant response rating, Horseweed",[13]; [28],90
same,"Plant response rating, Horseweed",[13]; [29],85
same,"Plant response rating, Field Bindweed",[14]; [26],80
same,"Plant response rating, Field Bindweed",[14]; [16],50
same,"Plant response rating, Field Bindweed",[14]; [27],80
same,"Plant response rating, Field Bindweed",[14]; [28],95
same,"Plant response rating, Field Bindweed",[14]; [29],70
same,"Plant response rating, Field Bindweed",[14]; [18],5
same,"Plant response rating, Field Bindweed",[14]; [25],40
same,"Plant response rating, Field Bindweed",[14]; [19],60
same,"Plant response rating, Lambsquarters",[15]; [20],100
same,"Plant response rating, Lambsquarters",[15]; [21],10
same,"Plant response rating, Lambsquarters",[15]; [22],100
same,"Plant response rating, Lambsquarters",[15]; [23],98
